Experimental data as given in ChEMBL document CHEMBL5053514, “Synthesis and Anti-Influenza Virus Effects of Novel Substituted Polycyclic Pyridone Derivatives Modified from Baloxavir” (J Med Chem, 2021).

Experiments:
MDCK = assay: Cytotoxicity against MDCK cells assessed as reduction in cell viability at 20 uM measured after 48 hrs by CCK8 assay; assay type: cell-based, Canis lupus familiaris; conditions: dog
[1] = Selectivity index, ratio of TC50 for MDCK cells to IC50 for antiviral activity against Influenza A virus (A/Fort Monmouth/1/1947(H1N1)) infected in MDCK cells; assay type: toxicity, cell-based; conditions: dog, read-out: Selectivity Index
[2] = Cytotoxicity against MDCK cells assessed as reduction in cell viability measured after 48 hrs by CCK8 assay; assay type: cell-based, Canis lupus familiaris; conditions: dog, read-out: TC50
[3] = Antiviral activity against Influenza A virus (A/WUHAN/359/1995(H3N2)) infected in dog MDCK cells assessed as inhibition of virus-induced cytopathogenicity incubated for 48 hrs; assay type: functional, cell-based
[4] = Selectivity index, ratio of TC50 for MDCK cells to IC50 for antiviral activity against Influenza A virus (A/WUHAN/359/1995(H3N2)) infected in MDCK cells; assay type: toxicity, cell-based; conditions: dog, read-out: Selectivity Index
Influenza A virus [5] = assay: Antiviral activity against Influenza A virus (A/Fort Monmouth/1/1947(H1N1)) infected in dog MDCK cells assessed as inhibition of virus-induced cytopathogenicity incubated for 48 hrs; assay type: functional, organism-based
HEK293T [6] = assay: Inhibition of Influenza A virus RdRP transfected in HEK293T cells co-transfected with NP/PA/PB1/PB2/pRL-SV40 at 1 nM incubated for 24 hrs by minireplicon based dual luciferase assay relative to control; assay type: cell-based
HEK293T [7] = assay: Inhibition of Influenza A virus RdRP transfected in HEK293T cells co-transfected with NP/PA/PB1/PB2/pRL-SV40 incubated for 24 hrs by DualGlo-luciferase assay; assay type: cell-based
Influenza A virus [8] = assay: Antiviral activity against Influenza A virus (A/Fort Monmouth/1/1947(H1N1)) infected in dog MDCK cells assessed as inhibition of M2 protein measured after 18 hrs by immunofluorescence microscopic analysis; assay type: functional, organism-based
Influenza A virus [9] = assay: Antiviral activity against Influenza A virus (A/Fort Monmouth/1/1947(H1N1)) infected in dog MDCK cells assessed as inhibition of M2 RNA level at 3 nM measured after 2 hrs by qRT-PCR relative to control; assay type: functional
Influenza A virus [10] = assay: Antiviral activity against Influenza A virus (A/Fort Monmouth/1/1947(H1N1)) infected in dog MDCK cells assessed as downregulation of M2 mRNA level measured after 2 hrs by qRT-PCR; assay type: functional, organism-based
[11] = Clearance in mouse liver microsomes in presence of NADPH generating system by LC-MS/MS analysis; assay type: ADME, Microsome
[12] = Half life in mouse liver microsomes in presence of NADPH generating system by LC-MS/MS analysis; assay type: ADME, Microsome
[13] = Tmax in Sprague-Dawley rat at 5 mg/kg, po measured after 24 hrs by LC-MS/MS analysis; assay type: ADME, organism-based; conditions: in vivo
[14] = AUC (0 to t) in Sprague-Dawley rat at 5 mg/kg, po measured after 24 hrs by LC-MS/MS analysis; assay type: ADME, organism-based; set-up: time 24 hrs, dose 5 mg/kg, route po; conditions: in vivo
[15] = Cmax in Sprague-Dawley rat at 5 mg/kg, po measured after 24 hrs by LC-MS/MS analysis; assay type: ADME, organism-based; set-up: dose 5 mg/kg, time 24 hrs, route po; conditions: in vivo
[16] = Half life in Sprague-Dawley rat at 5 mg/kg, po measured after 24 hrs by LC-MS/MS analysis; assay type: ADME, organism-based; conditions: in vivo
[17] = Half life in human liver microsomes in presence of NADPH generating system by LC-MS/MS analysis; assay type: ADME, Microsome
[18] = Clearance in human liver microsomes in presence of NADPH generating system by LC-MS/MS analysis; assay type: ADME, Microsome
[19] = Half life in rat liver microsomes in presence of NADPH generating system by LC-MS/MS analysis; assay type: ADME, Microsome
[20] = AUC (0 to infinity) in Sprague-Dawley rat at 5 mg/kg, po measured after 24 hrs by LC-MS/MS analysis; assay type: ADME, organism-based; set-up: time 24 hrs, dose 5 mg/kg, route po; conditions: in vivo
[21] = Clearance in rat liver microsomes in presence of NADPH generating system by LC-MS/MS analysis; assay type: ADME, Microsome
[22] = Oral bioavailability Sprague-Dawley rat at 5 mg/kg measured after 24 hrs by LC-MS/MS analysis; assay type: ADME, organism-based; conditions: in vivo

Compound	Activity (MDCK)	selectivity ratio [1]	CC50 at 48 h [2] [nM]	IC50 [3] [nM]	selectivity ratio [4]	IC50 (Influenza A virus [5]) [nM]	Activity (Influenza A virus [10])	other results
COc1ccc2c(c1)C(N1[C@@H]3COCCN3C(=O)c3c(O)c(=O)ccn31)c1ccccc1C=C2 (mixture of isomers)	Non-Toxic	> 711	> 200000	128	> 1560	281		
O=C1c2c(O)c(=O)ccn2N(C2c3ccccc3C=Cc3c(Cl)cccc32)[C@@H]2COCCN12 (mixture of isomers)		14500	8530	0.53	16100	0.59	Dose-dependent effect	inhibition (HEK293T [6]): 53.5%; inhibition (HEK293T [7]): Dose-dependent effect; Activity (Influenza A virus [8]): Dose-dependent effect; inhibition at 0.003 µM (Influenza A virus [9]): 76.3%
O=C1c2c(O)c(=O)ccn2N(C2c3ccccc3C=Cc3ccc(Cl)cc32)[C@@H]2COCCN12 (mixture of isomers)		1440	20100	15.2	1330	14.3		
Cc1ccc2c(c1)C(N1[C@@H]3COCCN3C(=O)c3c(O)c(=O)ccn31)c1ccccc1C=C2 (mixture of isomers)	Non-Toxic	1330	52400	111	472	39.3		
O=C1c2c(O)c(=O)ccn2N(C2c3ccccc3C=Cc3cc(Br)ccc32)[C@@H]2COCCN12 (mixture of isomers)		2050	21700	15.1	1440	10.6		
O=C1c2c(O)c(=O)ccn2N(C2c3ccccc3C=Cc3ccc(Br)cc32)[C@@H]2COCCN12 (mixture of isomers)	Non-Toxic	> 10300	> 200000	26.7	> 7490	19.4		
O=C1c2c(O)c(=O)ccn2N(C2c3ccccc3C=Cc3cc(Cl)ccc32)[C@@H]2COCCN12 (mixture of isomers)		2670	19200	4.69	4090	7.17		
O=C1c2c(O)c(=O)ccn2N(C2c3ccccc3C=Cc3ccccc32)[C@@H]2COCCN12	Non-Toxic	450000	189000	0.38	497000	0.42	Dose-dependent effect	CLH [11]: 73.9 microL/ml/min; half-life [12]: 31.4 h; inhibition (HEK293T [6]): 50%; Tmax [13]: 0.83 h; inhibition (HEK293T [7]): Dose-dependent effect; AUC(0-t) at 24 h [14]: 295 ng·h/mL; Cmax [15]: 88.1 ng/mL; half-life [16]: 1.7 h; half-life [17]: 221 h; Activity (Influenza A virus [8]): Dose-dependent effect; inhibition at 0.003 µM (Influenza A virus [9]): 88.5%; CLH [18]: 79.04 µmol/min/g; half-life [19]: 73.8 h; AUC(0-inf) [20]: 311 ng·h/mL; CLH [21]: 14.49 microL/ml/min; bioavailability [22]: 22.9%
O=C1c2c(O)c(=O)ccn2N(C2c3ccccc3C=Cc3cc(F)ccc32)[C@@H]2COCCN12 (mixture of isomers)	Non-Toxic	117000	59500	0.82	72600	0.51	Dose-dependent effect	
O=C1c2c(O)c(=O)ccn2N(C2c3ccccc3C=Cc3c(F)cccc32)[C@@H]2COCCN12 (mixture of isomers)		49600	19400	0.57	34000	0.39	Dose-dependent effect	inhibition (HEK293T [6]): 48.5%; inhibition (HEK293T [7]): Dose-dependent effect; Activity (Influenza A virus [8]): Dose-dependent effect; inhibition at 0.003 µM (Influenza A virus [9]): 86%
O=C1c2c(O)c(=O)ccn2N(C2c3ccccc3C=Cc3ccc(F)cc32)[C@@H]2COCCN12 (mixture of isomers)	Non-Toxic	> 68700	> 200000	1.77	> 113000	2.91	Dose-dependent effect	
